Assay results from ChEMBL document CHEMBL1201862, “PubChem BioAssay data set” (2004).
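These data come from cells grown in 96-well plates and exposed to compound for 48 hours at five concentrations. GI50 = concentration required for 50% inhibition of growth.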 The source made the active and inactive calls. Rule as the data show it: active = GI50 up to about 1.1 µM and inactive = higher.

Key:
Experiment in all cases: DTP human tumour cell line panel, 48 h
[1] = system: U-251
[2] = system: MDA-MB-435
[3] = system: EKVX
[4] = system: OVCAR-4
[5] = system: COLO 205
[6] = system: SN12C
[7] = system: A498
[8] = system: DU-145
[9] = system: OVCAR-8
[10] = system: SK-OV-3
[11] = system: A549
[12] = system: HT-29
[13] = system: CAKI-1
[14] = system: TK-10
[15] = system: RPMI-8226
[16] = system: MCF7
[17] = system: NCI-H522
[18] = system: HCT-116
[19] = system: SK-MEL-5
[20] = system: HCT-15

Measured: GI50

COc1ccc(/C=C2\C(=O)NC(=O)c3ccccc32)cc1OC
20.5 µM: [20]
inactive: [1] 11.8 µM | [2] 30.1 µM | [3] 31.6 µM | [4] 34.6 µM | [5] 50.4 µM | [6] 42.3 µM | [7] > 66.5 µM | [8] > 100 µM | [9] 10.1 µM | [10] 36.3 µM | [11] 48.2 µM | [12] 54.8 µM | [13] 26.7 µM | [14] > 100 µM | [15] 5.47 µM | [16] 56.9 µM | [17] 16.2 µM | [18] 6.78 µM | [19] 37.7 µM

C=C1c2nc3ccccc3n2C=C(c2ccc(C)cc2)N1c1ccccc1
1.47 µM: [20]
active: [2] 0.439 µM | [17] 0.617 µM
inactive: [1] 3.27 µM | [3] 2.9 µM | [4] 22.4 µM | [5] 3.04 µM | [6] 6.22 µM | [7] 4.53 µM | [8] 3.9 µM | [9] 5.14 µM | [10] 7.45 µM | [11] 5.55 µM | [12] 1.61 µM | [13] 20.5 µM | [14] 18.8 µM | [15] 2.3 µM | [16] 2.47 µM | [18] 2.9 µM | [19] 2.13 µM

C[N+]1(CC[N+]2(C)CCCC2c2cccnc2)CCCC1c1cccnc1 (stereo not given)
inactive: [1] 60 µM | [2] 33.2 µM | [3] 18.7 µM | [4] > 100 µM | [5] 86.1 µM | [6] > 100 µM | [7] > 100 µM | [8] > 100 µM | [9] > 100 µM | [10] > 100 µM | [11] > 100 µM | [12] 50.6 µM | [13] > 100 µM | [14] > 100 µM | [15] 97.7 µM | [16] > 100 µM | [17] > 100 µM | [18] 96.6 µM | [19] > 100 µM
> 100 µM: [20]

O=Cc1c2c(cc3c1CC1(C3)Cc3cc4c(c(C=O)c3C1)CCCC4)CCCC2
19.2 µM: [20]
inactive: [1] > 31.6 µM | [2] > 31.6 µM | [3] 23.9 µM | [4] > 31.6 µM | [5] 25.1 µM | [6] > 31.6 µM | [7] > 10 µM | [8] 85.3 µM | [9] 23.5 µM | [10] > 31.6 µM | [11] 21.3 µM | [12] 18 µM | [13] 46.5 µM | [14] > 31.6 µM | [15] 16.8 µM | [16] > 31.6 µM | [17] 14.3 µM | [18] 20.4 µM | [19] > 31.6 µM

NC(=O)N/N=C\c1ccccc1OCc1cccc(COc2ccccc2/C=N\NC(N)=O)n1
64.1 µM: [20]
inactive: [1] 5.56 µM | [2] > 100 µM | [3] 18 µM | [4] > 100 µM | [5] > 100 µM | [6] > 100 µM | [7] 98.6 µM | [8] 18.8 µM | [9] 63.1 µM | [10] 19 µM | [11] > 100 µM | [12] > 100 µM | [13] > 100 µM | [14] 30.7 µM | [15] > 100 µM | [16] > 100 µM | [17] 64.4 µM | [18] 33.9 µM | [19] > 100 µM

N#Cc1c(O)c(/N=N/c2ccc(Cl)cc2)c(=O)n2c1[nH]c1ccccc12
inactive: [1] 37.5 µM | [2] 35.8 µM | [3] > 100 µM | [4] 67 µM | [5] 52.2 µM | [6] 46.5 µM | [7] 37.6 µM | [8] 38.5 µM | [9] 37.8 µM | [10] 94 µM | [11] 44.9 µM | [12] 35.8 µM | [13] 78.3 µM | [14] 54 µM | [15] 21.5 µM | [16] 43.5 µM | [17] 33.3 µM | [18] 37.9 µM | [19] 53.7 µM
28.1 µM: [20]

O=C(Nc1ccc(Cl)cc1)c1cc(S(=O)(=O)NC2=Nc3ccc(Cl)cc3C(c3ccccc3)N2)c(SSc2cc(Cl)c(C(=O)Nc3ccc(Cl)cc3)cc2S(=O)(=O)NC2=Nc3ccc(Cl)cc3C(c3ccccc3)N2)cc1Cl (stereo not given)
inactive: [1] > 100 µM | [2] > 100 µM | [3] > 100 µM | [4] > 100 µM | [5] > 100 µM | [6] > 100 µM | [7] > 100 µM | [8] > 100 µM | [9] > 100 µM | [10] > 100 µM | [11] > 100 µM | [12] > 100 µM | [13] > 100 µM | [14] > 100 µM | [15] 97.1 µM | [16] > 100 µM | [17] > 100 µM | [18] > 100 µM | [19] > 73.3 µM
> 100 µM: [20]

COc1cc(-c2cc(=O)c3cc4c(=O)cc(-c5cc(OC)c(OC)c(OC)c5)oc4cc3o2)cc(OC)c1OC
inactive: [1] 8.59 µM | [2] > 100 µM | [3] > 100 µM | [4] > 82.8 µM | [5] > 100 µM | [6] 32.4 µM | [7] 24.7 µM | [8] 35.7 µM | [9] 27 µM | [10] 18.8 µM | [11] 88.9 µM | [12] > 100 µM | [13] 23.2 µM | [14] 16.3 µM | [15] > 100 µM | [16] > 100 µM | [17] 27.4 µM | [18] 30.9 µM | [19] > 100 µM
> 100 µM: [20]

COc1c(O)c(O)cc2c1-c1ccc(OC)c(=O)cc1C(NC(C)=O)CC2 (stereo not given)
inactive: [1] 4.03 µM | [2] 1.6 µM | [3] 25.5 µM | [4] 22.6 µM | [5] 3.13 µM | [6] 8.95 µM | [7] 15.5 µM | [8] 12.3 µM | [9] 7.55 µM | [10] 5.35 µM | [11] 37.4 µM | [12] 3.07 µM | [13] 24.2 µM | [14] 65.2 µM | [15] 10.9 µM | [16] 2.61 µM | [17] 1.84 µM | [18] 3.94 µM | [19] 2.52 µM
30.6 µM: [20]

Cc1ccc(S(=O)(=O)N/N=C2/C3CC4CCC2C4C3)cc1 (stereo not given)
> 100 µM: [20]
inactive: [1] > 100 µM | [2] > 100 µM | [3] > 100 µM | [4] > 100 µM | [5] > 100 µM | [6] > 100 µM | [7] > 100 µM | [8] > 100 µM | [9] > 100 µM | [10] > 100 µM | [11] > 100 µM | [12] > 100 µM | [13] > 100 µM | [14] > 100 µM | [15] > 100 µM | [16] > 100 µM | [17] > 100 µM | [18] > 100 µM | [19] > 100 µM

O=C(CCSC1=NCCCN1)c1ccc(F)cc1
inactive: [1] 17.5 µM | [2] 18.5 µM | [3] 12.7 µM | [4] 21.6 µM | [5] 5.98 µM | [6] 22.2 µM | [7] 20.6 µM | [8] 17.4 µM | [9] 31.9 µM | [10] 21.3 µM | [11] 20.4 µM | [12] 20.2 µM | [13] 17.2 µM | [14] 15.8 µM | [15] 2.15 µM | [16] 4.41 µM | [17] 2.08 µM | [18] 20.1 µM | [19] 18.9 µM
13.1 µM: [20]

C=CC[C@]1(C2=NC(C)(C)CO2)c2ccccc2-c2ccccc2[C@H]1C(C)=O
inactive: [1] 8.15 µM | [2] 3.64 µM | [3] 15.6 µM | [4] 15.6 µM | [5] 4.41 µM | [6] 15.6 µM | [7] 7.67 µM | [8] 14.4 µM | [9] 15.7 µM | [10] 9.31 µM | [11] 9.31 µM | [12] 4.19 µM | [13] 10.5 µM | [14] 12.5 µM | [15] 7.23 µM | [16] 4.22 µM | [17] 2.61 µM | [18] 5.4 µM | [19] 3.54 µM
4.82 µM: [20]

COCC(=O)OC1CCn2c1nc1c2C(=O)C(C)=C(NC(C)=O)C1=N (stereo not given)
8.13 µM: [20]
inactive: [1] 5.38 µM | [2] 1.66 µM | [3] 12.3 µM | [4] 2.19 µM | [5] 12.5 µM | [6] 3.72 µM | [7] 18.5 µM | [8] 20.4 µM | [9] 2.56 µM | [10] 17.7 µM | [11] 21.3 µM | [12] 4.21 µM | [13] 11.2 µM | [14] 15.6 µM | [15] 2.27 µM | [16] 1.69 µM | [17] 5.01 µM | [18] 3.08 µM | [19] 2.42 µM

COc1cc(C2c3[nH]c4ccccc4c3C[C@H]3COC(=O)N23)cc(OC)c1OC (stereo not given in full)
active: [1] 0.0445 µM | [2] 0.0213 µM | [3] < 0.01 µM | [5] 0.0687 µM | [6] 0.163 µM | [7] 0.0745 µM | [8] 0.0879 µM | [9] 0.178 µM | [10] 0.0366 µM | [11] 0.101 µM | [12] 0.097 µM | [13] 0.885 µM | [15] 0.0676 µM | [16] 0.0406 µM | [17] 0.015 µM | [18] 0.0416 µM | [19] 0.0266 µM
inactive: [4] 1.55 µM | [14] 5.36 µM
0.0471 µM: [20]
